From US8357655B2, “Wound healing peptides and methods of use thereof” (Tufts University, priority 2008, dated 2013)

Columns and labels:
Assay type in all cases: cell-based
[1] = test system: capillary endothelial cells; test: in vitro capillary morphogenesis (angiogenesis) assay; conditions: cells embedded in ECM-derived three-dimensional matrix, incubated twenty hours (FIG. 4)
Method: The WHPs provided herein are also useful in the promotion of capillary morphogenesis. […] Specifically, isolated capillary endothelial cells were embedded in an ECM-derived three-dimensional matrix that contained a WHP at a range of concentrations from the nanomolar (nM) to sub-millimolar (mM) (e.g., between 0.5 nM-0.2 mM) and incubated. […] In comparison, negative control cell populations (i.e., cells that were not exposed to a WHP but were exposed to serum containing media, which contains growth factors and other angiogenesis inducers) generally remained as individual cells during this timeframe at this population density.

[2] = test system: endothelial cells; test: endothelial cell proliferation assay; conditions: peptide at 1 nM; control cultures in 5% BCS DMEM (FIG. 5)
Method: The WHPs provided herein induce endothelial cell proliferation. […] Endothelial cells were plated at subconfluent concentrations and allowed to attach, then new culture media was provided in the presence or absence of a WHP; control cultures were grown in 5% BCS DMEM.

[3] = test system: human epidermal-derived keratinocytes; test: in vitro wound healing assay, keratinocyte post-injury motility; conditions: compared with HbEGF, growth factor known to be migration-inducing in keratinocytes (FIG. 2)
Method: Referring to FIG. 2, an in vitro wound healing assay was performed to compare the wound healing properties of two WHPs, SEQ ID NO: 3 and SEQ ID NO: 9, with a known potentiator of keratinocyte migration, heparin-binding EGF-like growth factor (HbEGF). In these experiments, confluent densities of human epidermal-derived keratinocytes were plated in vitro in defined media lacking WHPs or positive control substances. At time zero, all cultures are wounded mechanically and imaging of wounds was accomplished automatically using computer-assisted light microscope imaging. Cell cultures were injured mechanically by removing defined zones of living cells were then washed and test agents or control substances delivered. Cells recovering from injury were than quantifiably monitored using computer-assisted imaging and light microscopy. Post-injury motility was assessed using the migratory response of untreated injured cultures as a baseline for quantitative comparative analysis. Multiple experiments with multiple replicates are shown, standard deviation with error of the mean.

[4] = test system: capillary endothelial cells; test: in vitro wound healing assay, capillary endothelial cell migration; conditions: one and two hours post-injury; WHP 0.5 nM to 0.2 mM in DMEM with 1% bovine calf serum; vs control cultures (FIG. 1)
Method: In this assay, capillary endothelial cells were plated on tissue culture plastic and allowed to form a confluent monolayer. The monolayer was mechanically disrupted and non-adherent cells were removed, at which point the WHP was provided at a concentration within the range of sub-nanomolar (0.5 nM) to sub-millimolar (0.2 mM) in tissue culture media (DMEM with 1% bovine calf serum. Control cultures were incubated with serum alone, positive control test substances, e.g. basic fibroblast growth factor (bFGF viz, FGF2) and vascular endothelial growth factor (VEGF) (for capillary-derived endothelial cells); or heparin-binding epidermal-like growth factor (Hb-EGF) (for human skin derived keratinocytes). Other control cultures were incubated with either no peptide or a random peptide without wound healing or proliferative properties. The extent of endothelial cell migration in the WHP and control cultures was observationally determined at various time points following injury (e.g., thirty minutes, one hour, two hours, or more than two hours).

[5] = in vitro injury model, dose dependence; conditions: concentrations ranging from 1 to 1000 nM (FIG. 3)
Method: Referring to FIG. 3, the WHPs provided herein act in dose-dependent manner. A WHP, SEQ ID NO: 9, was provided in an in vitro injury model at concentrations ranging from 1 to 1000 nM.

bFGF: basic fibroblast growth factor, positive control growth factor
formation of capillary tube like structures / in vitro angiogenesis [1]: able to promote in vitro angiogenesis to a lesser extent than populations treated with a WHP

DINECEIGAPAGEETEVTVEGLEPG [SEQ ID NO: 3]
endothelial cell proliferation [2]: increase in endothelial cell proliferation | keratinocyte post-injury motility [3]: equal or superior to the growth factor

DINECELSANL [SEQ ID NO: 9]
endothelial cell proliferation [2]: increase in endothelial cell proliferation | keratinocyte post-injury motility [3]: equal or superior to the growth factor | endothelial cell migration into the wound site [4]: substantially greater migration into the wound site | wound healing activity, dose dependence [5]: dose-dependent
